Reference: paper PMC9929129, “Towards Translation of PqsR Inverse Agonists: From In Vitro Efficacy Optimization to In Vivo Proof‐of‐Principle” (Advanced Science, 2023)
“Also recorded” adds a separate entry of the source.

Assays:
[1] = target: T1, Cav1.2 (L-type) human Ca ion channel (Homo sapiens, UniProt Q13936); assay: cell-based
T1 construct: Eurofins CYL8051QP2DR
Protocol: 1.4.2 Further functional off-target assays (Eurofins)
Table S8. Compound 24 was further tested in the following functional assays at Eurofins. […]
Cav1.2 (L-type) human Ca ion channel cell based automated patch >30 µM clamp assay (CYL8051QP2DR) […]
(§1) FLIPR Assay expressed in HEK293 cells
(§2) GABAA α5/β3/γ2 ionotropic receptor (human GABRA5, GABRB3, >30 and GABRG2 genes, expressed in HEK293 cells

[2] = system: Pseudomonas aeruginosa PA14; assay: Pyocyanin assay in Pseudomonas aeruginosa; format: cell-based; conditions: PA14, 16 h, read-out: IC50 Pyocyanin
Protocol: 1.2.2 Pyocyanin assay in Pseudomonas aeruginosa
Inhibition of pyocyanin biosynthesis of compounds was measured spectrophotometrically as previously described.[2] Pseudomonas aeruginosa PA14 was grown in rich medium for 16 h under agitation with and without compound. Pyocyanin was extracted from cultures with chloroform, then re-extracted with 0.2 M HCl and quantified photometrically (520 nm). IC50 values were determined from dose-response curves of compounds using at least six different concentrations and fitting with non-linear regression analysis (OriginPro 2017–2020, Originlab Corporation). […]

[3] = system: Salmonella typhimurium TA98 and TA100; assay: Mini-AMES; format: cell-based; conditions: @62.25 µg mL^−1 (147 × 10^−6 M); also in presence of rat liver S9 fractions
Protocol: P2X4 receptor (human P2RX4 gene) expressed in HEK293 cells >30
TRPA1 channel (human TRPA1 gene) expressed in CHO cells >30
TRPC6 channel (human TRPC6 gene) expressed in HEK293 cells >30
TRPV1 channel (human TRPV1 gene) expressed in HEK293 cells >30
TRPV4 channel (human TRPV4 gene) expressed in CHO cells >30
1.4.4 Pharmacokinetic and off-target functional assays (Cyprotex)
Compound 24 was assayed at Cyprotex in functional assays for interference with important off-targets as well as important pharmacokinetic parameters. With the exception of plasma protein binding, a dose-response relationship was studied in order to calculate IC50 values.
Table S10. Information on in vitro ADMET assays performed at Cyprotex. […]
Approximately ten million bacteria were exposed in triplicate to 24 (1.9, 3.9, 7.8, 15.6, 31.2, 62.5 µg/mL), a negative control (vehicle) and positive controls for 90 min in medium containing a low concentration of histidine (sufficient for about 2 doublings.) The cultures were then diluted into indicator medium lacking histidine, and dispensed into 48 wells of 384-well plates (micro-plate format, MPF). […] The wells showing growth were counted and compared to the vehicle control. […]
The maximum tolerated dose of 24 in NMRI mice was conducted and analyzed at CRO ATRC Aurigon Toxicological Research Center Ltd, Hungary. […]

[4] = target: T2, BK (KCa1.1/β1) calcium-activated potassium channel (Homo sapiens, UniProt Q12791); assay: Ion channel profiling at Charles River: BK; format: cell-based; conditions: expressed in CHO cells; read-out: ESTIMATED IC50
T2 construct: host or cells: CHO cells
T2 sequence (Q12791 whole entry): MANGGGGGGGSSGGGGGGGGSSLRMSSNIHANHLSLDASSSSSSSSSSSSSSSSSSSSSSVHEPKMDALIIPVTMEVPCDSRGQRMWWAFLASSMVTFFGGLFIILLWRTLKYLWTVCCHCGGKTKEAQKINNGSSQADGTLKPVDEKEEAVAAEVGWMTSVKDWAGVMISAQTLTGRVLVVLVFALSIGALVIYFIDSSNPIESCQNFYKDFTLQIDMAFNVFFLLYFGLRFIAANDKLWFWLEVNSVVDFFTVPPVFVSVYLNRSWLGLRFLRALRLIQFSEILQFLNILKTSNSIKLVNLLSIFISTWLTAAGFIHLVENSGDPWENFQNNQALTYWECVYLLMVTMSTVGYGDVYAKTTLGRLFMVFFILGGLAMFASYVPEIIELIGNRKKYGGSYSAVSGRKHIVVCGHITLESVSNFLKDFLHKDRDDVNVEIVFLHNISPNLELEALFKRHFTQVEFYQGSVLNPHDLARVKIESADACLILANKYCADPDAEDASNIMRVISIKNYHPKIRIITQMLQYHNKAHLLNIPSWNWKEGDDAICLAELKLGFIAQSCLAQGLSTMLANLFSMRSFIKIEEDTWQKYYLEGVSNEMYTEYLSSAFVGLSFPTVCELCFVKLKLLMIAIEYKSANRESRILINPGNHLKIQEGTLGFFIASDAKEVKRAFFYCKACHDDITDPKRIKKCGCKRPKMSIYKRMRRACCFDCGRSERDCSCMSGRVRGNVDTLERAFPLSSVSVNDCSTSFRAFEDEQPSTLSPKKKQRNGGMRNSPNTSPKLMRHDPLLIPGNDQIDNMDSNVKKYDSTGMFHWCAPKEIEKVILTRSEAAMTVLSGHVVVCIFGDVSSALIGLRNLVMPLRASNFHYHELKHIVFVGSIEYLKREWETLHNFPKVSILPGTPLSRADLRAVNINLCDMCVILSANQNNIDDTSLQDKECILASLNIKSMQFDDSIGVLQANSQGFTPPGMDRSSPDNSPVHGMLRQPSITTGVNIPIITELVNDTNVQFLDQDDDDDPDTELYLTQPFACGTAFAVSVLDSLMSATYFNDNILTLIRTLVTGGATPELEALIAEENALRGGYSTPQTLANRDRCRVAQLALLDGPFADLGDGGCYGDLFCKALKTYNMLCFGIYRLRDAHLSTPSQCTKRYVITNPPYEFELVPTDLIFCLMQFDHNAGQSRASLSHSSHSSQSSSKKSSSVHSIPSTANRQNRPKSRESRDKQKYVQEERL
T2 sequence (Q16558 whole entry partner): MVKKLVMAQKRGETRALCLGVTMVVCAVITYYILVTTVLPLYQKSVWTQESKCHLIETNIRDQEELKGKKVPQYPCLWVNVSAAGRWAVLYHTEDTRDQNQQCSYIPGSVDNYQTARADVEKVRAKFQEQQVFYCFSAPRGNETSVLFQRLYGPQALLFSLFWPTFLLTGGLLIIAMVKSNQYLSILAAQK
Protocol: 1.4.3 Ion Channel Profiling at Charles River
Table S9. Compound 24 was tested against the following ion channels at Charles River Laboratories. […]
BK (KCa1.1/β1) calcium-activated potassium channel (human >30
KCNMA1 and KCNMB1 genes) expressed in CHO cells
FASTPatch Assay IK (KCa3.1) calcium-activated potassium channel (human KCNN4 >30 gene) expressed in CHO cells […]
as §1, §2

[5] = Mouse maximum tolerated dose (MTD) study; format: in vivo, NMRI mice
Protocol: 1.4.6 Mouse Maximum tolerated dose (MTD) study (Aurigon)
The maximum tolerated dose of 24 in NMRI mice was conducted and analyzed at CRO ATRC Aurigon Toxicological Research Center Ltd, Hungary. The study was conducted in accordance with Standard Operating Procedures of ATRC and the requirements of EEC Directive 2001/83/EC of the European Parliament and of the Council of November 6, 2001 on the Community Code relating to Medicinal Products for human use (Official Journal L -311,28/11/2004, p.67–128) as amended by EEC Directive 2004/27/EC of the European Parliament and the Council of March 31, 2004 amending Directive 2001/83/EC on the Community code relating to medicinal products for human use (Official Journal L - 136, 30/04/2004, p. 34-57), ICH Guideline M3(R2) “Guidance on Nonclinical Safety Studies for the Conduct of Human Clinical Trials and Marketing Authorization for Pharmaceuticals”, ICH Guideline S3A “Toxicokinetics: The Assessment of Systemic Exposure in Toxicity Studies”, OECD Guideline for the Testing of Chemicals: Toxicokinetics, (OECD 417, 2010). This study was conducted in compliance with the principles of Hungarian Act 1998: XXVIII regulating animal protection (latest modified by Act 2011 CLVIII) and in Government Decree 40/2013 on animal experiments. Handling and care of the animals will be conducted according to the Guide for the Care and Use of Laboratory Animals, NRC, […]
Animals were 6 weeks old and weighed 27–34 g. 24 was applied subcutaneously in a formulation […]
48 h. As no clinical findings were observed, 30 mg/kg was then applied to the next group. Likewise, 60 mg/kg were applied 48 h after. Mortality was observed twice a day. Clinical observation was performed directly after dosing, 1 h, 2 h, 4 h, 24 h and 48 h after administration. Body weight was registered prior to treatment and daily after the dosing for 48 h. For serum concentration determination, 100 μL blood were collected from each animal at 0.5 h and 4 h time points after the administration, processed to plasma and analyzed using HPLC-MS/MS at HZI. Each group consisted of 5 male and 5 female mice, 2 of which were used for blood collection.

CC(C)Oc1ccc(-c2ncc(CNc3ccnc(C(F)(F)F)c3)cn2)cc1Cl [Compound 24]
IC50 [1]: > 30 µM | IC50 [2]: 0.245 ± 0.04 µM | Mini‐AMES genotoxicity [3]: no genotoxicity; also recorded: Negative @62.25 µg mL^−1 (147 × 10^−6 M) | IC50 [4]: > 30 µM | clinical findings ([5]; 60 mg kg^−1 subcutaneous, slight, transient, at 2 and 4 h): piloerection and decreased activity (3 of 10 mice) | mortality or loss of body weight ([5]; 10, 30, and 60 mg kg^−1 subcutaneous, during 48 h): no mortality or loss of body weight | clinical findings ([5]; 10 and 30 mg kg^−1 subcutaneous): devoid of any clinical findings | tolerability in male and female mice ([5]; up to 60 mg kg^−1 subcutaneous): well tolerated
